The source made the active and inactive calls.
Tests used:
[1] = biological target: T1, Cysteine protease ATG4B (Homo sapiens, UniProt Q9Y4P1); format: functional;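 further: Fluorescence-based dose-response confirmation assay measuring inhibition of ATG4B activity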
T1 sequence (Q9Y4P1 whole entry): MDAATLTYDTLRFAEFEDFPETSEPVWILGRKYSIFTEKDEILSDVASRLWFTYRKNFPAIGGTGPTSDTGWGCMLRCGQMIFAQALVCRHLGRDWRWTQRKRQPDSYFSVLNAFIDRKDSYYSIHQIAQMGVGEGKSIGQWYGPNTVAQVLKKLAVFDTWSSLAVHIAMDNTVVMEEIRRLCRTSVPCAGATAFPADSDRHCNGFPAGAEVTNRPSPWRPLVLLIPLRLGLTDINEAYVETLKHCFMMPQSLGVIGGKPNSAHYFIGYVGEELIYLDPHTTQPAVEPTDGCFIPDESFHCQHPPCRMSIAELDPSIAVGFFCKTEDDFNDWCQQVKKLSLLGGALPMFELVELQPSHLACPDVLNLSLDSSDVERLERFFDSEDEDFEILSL

[2] = biological target: Phospholipase A2 (Homo sapiens, UniProt P04054); format: functional;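 further: confirmatory dose-response counterscreen on phospholipase A2, testing hits that came from an ultra-high-throughput screen for ATG4B inhibitors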
[3] = biological target: Cytochrome P450 2D6 (Homo sapiens, UniProt P10635);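 further: CYP2D6 member of a cytochrome P450 panel assay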
[4] = biological target: Cytochrome P450 3A4 (Homo sapiens, UniProt P08684);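 further: CYP3A4 tested as one member of a cytochrome P450 panel screen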
[5] = biological target: Cytochrome P450 2C9 (Homo sapiens, UniProt P11712)
[6] = biological target: Dual specificity tyrosine-phosphorylation-regulated kinase 1A (Rattus norvegicus, UniProt Q63470); format: biochemical, Homo sapiens
[7] = biological target: T2, Endoribonuclease toxin MazF (Escherichia coli K-12, UniProt P0AE70); experiment: activation of MazEF endoribonuclease cleavage – biochemical, fluorescence, single-stranded RNA substrate, uHTS hits, dose response (AID 588481); format: functional
T2 sequence (P0AE70 whole entry): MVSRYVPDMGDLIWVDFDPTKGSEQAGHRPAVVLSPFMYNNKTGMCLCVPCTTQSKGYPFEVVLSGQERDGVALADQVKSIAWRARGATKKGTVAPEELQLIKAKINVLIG

[8] = biological target: T2, Endoribonuclease toxin MazF; experiment: substrate-only fluorescence increase artefacts – biochemical, single-stranded RNase substrate, counter-screen for MazEF activator project, dose response (AID 588502); format: functional
[9] = biological target: T3, Corticotropin-releasing factor receptor 2/Corticotropin-releasing factor-binding protein (Homo sapiens, UniProt P24387+Q13324); experiment: activators of CRF receptor 2 with binding protein – uHTS hits, confirmation (AID 602473); format: functional; conditions: read-out: EC50_Mean
T3 sequence (Q13324 whole entry): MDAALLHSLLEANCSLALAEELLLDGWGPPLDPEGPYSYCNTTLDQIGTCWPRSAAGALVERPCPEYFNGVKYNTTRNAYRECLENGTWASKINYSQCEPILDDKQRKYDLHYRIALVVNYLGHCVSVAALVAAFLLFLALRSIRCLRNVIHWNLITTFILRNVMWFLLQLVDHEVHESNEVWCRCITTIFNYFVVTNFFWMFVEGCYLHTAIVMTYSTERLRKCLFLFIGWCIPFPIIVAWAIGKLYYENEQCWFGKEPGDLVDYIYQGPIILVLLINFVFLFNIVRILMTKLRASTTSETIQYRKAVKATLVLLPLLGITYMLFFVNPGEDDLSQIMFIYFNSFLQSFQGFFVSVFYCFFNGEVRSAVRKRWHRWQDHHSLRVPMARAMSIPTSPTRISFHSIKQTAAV
T3 sequence (P24387 whole entry): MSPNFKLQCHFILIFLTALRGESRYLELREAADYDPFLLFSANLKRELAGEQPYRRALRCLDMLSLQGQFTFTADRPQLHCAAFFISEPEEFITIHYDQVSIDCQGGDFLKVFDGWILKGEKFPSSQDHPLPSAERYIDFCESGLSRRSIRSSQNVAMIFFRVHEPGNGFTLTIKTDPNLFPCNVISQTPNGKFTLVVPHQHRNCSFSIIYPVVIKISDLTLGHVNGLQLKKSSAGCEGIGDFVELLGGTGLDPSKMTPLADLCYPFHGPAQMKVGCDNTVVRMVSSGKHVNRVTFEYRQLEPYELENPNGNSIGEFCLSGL

[10] = biological target: Dual specificity protein kinase CLK1 (Homo sapiens, UniProt P49759); experiment: inhibition of human CLK1 activity – biochemical, cherry-picked samples, selectivity assay for Dyrk1A inhibitor project, dose response (AID 588811)
[11] = biological target: 26S proteasome non-ATPase regulatory subunit 14 (Homo sapiens, UniProt O00487); experiment: inhibition of proteasome subunit RPN11 – biochemical, fluorescence polarization, uHTS hits, confirmation (AID 602368); format: functional
[12] = biological target: 72 kDa type IV collagenase (Homo sapiens, UniProt P08253); experiment: Dose Response validation of uHTS RPN11 inhibitor hits using a MMP-2 Fluorescence assay.; format: functional
[13] = biological target: Prothrombin (Bos taurus, UniProt P00735); experiment: thrombin protease inhibitors – biochemical, fluorescence polarization, uHTS hits, dose response (AID 602369); format: functional
[14] = biological target: T4, Sentrin-specific protease 8 (Homo sapiens, UniProt Q96LD8); experiment: inhibition of human SENP8 cleavage activity – biochemical, luminescence, SAR follow-up (AID 504501); format: functional
T4 sequence (Q96LD8 whole entry): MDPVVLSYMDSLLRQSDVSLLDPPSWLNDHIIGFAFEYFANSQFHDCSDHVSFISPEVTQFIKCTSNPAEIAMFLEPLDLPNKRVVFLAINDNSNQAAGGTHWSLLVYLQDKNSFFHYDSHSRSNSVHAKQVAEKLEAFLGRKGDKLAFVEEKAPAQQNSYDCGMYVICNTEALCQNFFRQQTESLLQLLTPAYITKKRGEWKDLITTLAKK

[15] = biological target: T5, Caspase-3 (Homo sapiens, UniProt P42574); experiment: SAR Analysis of small molecule inhibitors of Sentrin-specific proteases (SENPs) using a Caspase-3 Selectivity assay. [Related pubchem assays (depositor defined):AID2540, AID2599, AID434973, AID489001]; format: functional
T5 sequence (P42574 whole entry): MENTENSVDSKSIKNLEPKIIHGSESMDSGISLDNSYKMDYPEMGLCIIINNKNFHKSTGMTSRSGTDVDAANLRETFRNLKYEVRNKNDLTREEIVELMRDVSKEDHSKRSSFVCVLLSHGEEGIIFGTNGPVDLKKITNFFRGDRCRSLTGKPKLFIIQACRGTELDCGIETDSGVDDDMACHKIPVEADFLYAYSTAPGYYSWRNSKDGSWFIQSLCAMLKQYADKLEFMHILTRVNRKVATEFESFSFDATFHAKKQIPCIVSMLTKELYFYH

[16] = biological target: T6, Sentrin-specific protease 6 (Homo sapiens, UniProt Q9GZR1); experiment: SAR Analysis of small molecule inhibitors of Sentrin-specific protease 6 (SENP6) using a Luminescent assay. [Related pubchem assays (depositor defined):AID2582, AID2599]; format: functional
T6 sequence (Q9GZR1 whole entry): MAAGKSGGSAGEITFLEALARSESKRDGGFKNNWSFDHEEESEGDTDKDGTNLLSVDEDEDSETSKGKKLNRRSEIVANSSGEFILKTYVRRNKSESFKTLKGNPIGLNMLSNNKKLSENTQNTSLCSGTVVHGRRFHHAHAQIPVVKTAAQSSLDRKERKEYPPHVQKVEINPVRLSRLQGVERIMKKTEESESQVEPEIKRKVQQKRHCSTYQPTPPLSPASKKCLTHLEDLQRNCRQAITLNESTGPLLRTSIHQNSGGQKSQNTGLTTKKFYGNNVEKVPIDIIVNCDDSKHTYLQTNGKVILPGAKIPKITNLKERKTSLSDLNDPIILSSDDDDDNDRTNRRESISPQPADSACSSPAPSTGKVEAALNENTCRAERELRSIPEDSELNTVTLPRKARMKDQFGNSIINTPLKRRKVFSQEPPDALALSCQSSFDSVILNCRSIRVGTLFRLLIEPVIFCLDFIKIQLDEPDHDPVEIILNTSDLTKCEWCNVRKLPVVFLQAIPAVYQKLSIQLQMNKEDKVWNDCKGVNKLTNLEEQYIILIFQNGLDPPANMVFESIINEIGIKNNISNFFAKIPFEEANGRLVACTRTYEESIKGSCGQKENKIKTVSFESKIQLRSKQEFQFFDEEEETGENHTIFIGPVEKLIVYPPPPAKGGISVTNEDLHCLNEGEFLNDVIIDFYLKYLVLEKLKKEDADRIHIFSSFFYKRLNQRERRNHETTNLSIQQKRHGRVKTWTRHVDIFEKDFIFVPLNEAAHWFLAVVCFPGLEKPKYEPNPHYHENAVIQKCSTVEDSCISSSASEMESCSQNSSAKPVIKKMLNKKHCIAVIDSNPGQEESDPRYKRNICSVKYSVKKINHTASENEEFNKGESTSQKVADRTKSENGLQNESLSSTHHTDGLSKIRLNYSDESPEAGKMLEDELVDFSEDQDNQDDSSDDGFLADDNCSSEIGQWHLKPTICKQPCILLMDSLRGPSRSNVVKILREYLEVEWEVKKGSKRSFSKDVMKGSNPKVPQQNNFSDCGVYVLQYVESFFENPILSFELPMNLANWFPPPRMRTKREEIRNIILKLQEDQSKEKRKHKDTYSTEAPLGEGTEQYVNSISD

[17] = biological target: T7, Sentrin-specific protease 7 (Homo sapiens, UniProt Q9BQF6); experiment: inhibition of human SENP7 cleavage activity – biochemical, luminescence, SAR follow-up (AID 504497); format: functional
T7 sequence (Q9BQF6 whole entry): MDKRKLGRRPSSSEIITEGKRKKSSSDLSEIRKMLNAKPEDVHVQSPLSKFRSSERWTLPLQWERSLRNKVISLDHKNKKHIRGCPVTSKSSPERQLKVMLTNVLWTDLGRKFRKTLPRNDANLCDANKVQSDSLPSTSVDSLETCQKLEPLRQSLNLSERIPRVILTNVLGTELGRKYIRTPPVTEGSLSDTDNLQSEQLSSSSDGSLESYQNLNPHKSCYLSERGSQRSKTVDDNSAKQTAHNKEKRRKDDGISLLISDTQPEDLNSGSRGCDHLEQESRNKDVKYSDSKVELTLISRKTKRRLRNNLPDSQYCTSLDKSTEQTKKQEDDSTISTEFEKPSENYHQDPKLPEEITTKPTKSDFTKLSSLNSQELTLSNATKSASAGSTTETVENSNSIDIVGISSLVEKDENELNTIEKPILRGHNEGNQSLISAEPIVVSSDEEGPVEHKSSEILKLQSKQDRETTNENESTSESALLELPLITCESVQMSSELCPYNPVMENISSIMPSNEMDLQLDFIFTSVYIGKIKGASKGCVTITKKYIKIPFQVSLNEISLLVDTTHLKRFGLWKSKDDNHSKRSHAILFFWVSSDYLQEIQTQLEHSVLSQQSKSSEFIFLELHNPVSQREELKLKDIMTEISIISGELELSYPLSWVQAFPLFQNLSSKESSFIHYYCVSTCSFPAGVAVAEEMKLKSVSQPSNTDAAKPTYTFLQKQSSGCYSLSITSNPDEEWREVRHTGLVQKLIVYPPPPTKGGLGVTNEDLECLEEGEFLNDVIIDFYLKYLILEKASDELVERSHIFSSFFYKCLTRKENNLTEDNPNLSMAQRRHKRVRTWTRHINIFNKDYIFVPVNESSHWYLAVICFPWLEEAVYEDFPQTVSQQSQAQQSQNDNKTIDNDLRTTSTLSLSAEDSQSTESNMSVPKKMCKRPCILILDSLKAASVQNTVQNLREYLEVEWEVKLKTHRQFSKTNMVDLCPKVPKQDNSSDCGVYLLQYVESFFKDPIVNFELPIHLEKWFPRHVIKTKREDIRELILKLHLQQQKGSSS

[18] = biological target: Nonstructural protein 1 (Influenza A virus, UniProt Q194T2); format: functional, Influenza A virus (A/California/07/2009(H1N1))
[19] = system: HEK293; experiment: EBV LMP1 TES2 canonical NF-kB signalling blockers – cell-based, HEK293, luciferase, cherry-pick, dose response (AID 588343); format: functional; conditions: Homo sapiens
[20] = biological target: Heat shock protein HSP 90-alpha (Homo sapiens, UniProt P07900); format: functional, organism-based
[21] = system: HEK293; experiment: cells; conditions: Homo sapiens
[22] = system: HEK293; experiment: cells; conditions: Homo sapiens; remark: listed apart in the source
[23] = cells; format: functional

Chain of Dual specificity protein kinase CLK1 (P49759 whole entry): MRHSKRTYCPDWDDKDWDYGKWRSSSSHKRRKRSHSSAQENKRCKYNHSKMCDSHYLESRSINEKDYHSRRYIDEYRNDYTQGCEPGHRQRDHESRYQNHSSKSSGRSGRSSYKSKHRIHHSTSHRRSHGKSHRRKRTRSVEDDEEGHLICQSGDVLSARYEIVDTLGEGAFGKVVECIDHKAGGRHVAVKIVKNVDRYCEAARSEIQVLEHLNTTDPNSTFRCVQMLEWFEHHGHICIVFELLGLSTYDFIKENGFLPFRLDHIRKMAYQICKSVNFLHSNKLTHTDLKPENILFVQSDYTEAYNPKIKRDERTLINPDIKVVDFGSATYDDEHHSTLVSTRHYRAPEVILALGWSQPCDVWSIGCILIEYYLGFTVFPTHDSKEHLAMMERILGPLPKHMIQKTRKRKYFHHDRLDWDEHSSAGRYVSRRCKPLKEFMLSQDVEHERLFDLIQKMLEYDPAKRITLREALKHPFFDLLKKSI
Chain of Phospholipase A2 (P04054 whole entry): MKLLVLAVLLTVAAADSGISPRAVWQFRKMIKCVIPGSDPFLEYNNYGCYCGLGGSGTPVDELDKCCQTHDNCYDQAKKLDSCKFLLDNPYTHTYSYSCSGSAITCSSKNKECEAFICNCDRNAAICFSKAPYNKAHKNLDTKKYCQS
Chain of Cytochrome P450 2C9 (P11712 whole entry): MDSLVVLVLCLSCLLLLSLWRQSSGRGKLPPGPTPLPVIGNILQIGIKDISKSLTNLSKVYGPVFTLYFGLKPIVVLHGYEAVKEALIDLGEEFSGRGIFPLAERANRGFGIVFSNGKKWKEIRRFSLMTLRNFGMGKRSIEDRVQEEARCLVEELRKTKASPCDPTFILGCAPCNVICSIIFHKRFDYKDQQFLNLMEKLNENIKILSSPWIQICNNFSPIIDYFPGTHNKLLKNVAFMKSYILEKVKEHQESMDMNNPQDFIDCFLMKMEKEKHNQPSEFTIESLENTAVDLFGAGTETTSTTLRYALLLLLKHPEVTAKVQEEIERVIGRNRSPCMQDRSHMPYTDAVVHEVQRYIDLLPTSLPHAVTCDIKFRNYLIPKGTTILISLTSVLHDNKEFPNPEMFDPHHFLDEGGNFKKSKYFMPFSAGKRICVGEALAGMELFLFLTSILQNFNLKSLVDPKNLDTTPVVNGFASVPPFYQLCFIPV
Chain of Cytochrome P450 2D6 (P10635 whole entry): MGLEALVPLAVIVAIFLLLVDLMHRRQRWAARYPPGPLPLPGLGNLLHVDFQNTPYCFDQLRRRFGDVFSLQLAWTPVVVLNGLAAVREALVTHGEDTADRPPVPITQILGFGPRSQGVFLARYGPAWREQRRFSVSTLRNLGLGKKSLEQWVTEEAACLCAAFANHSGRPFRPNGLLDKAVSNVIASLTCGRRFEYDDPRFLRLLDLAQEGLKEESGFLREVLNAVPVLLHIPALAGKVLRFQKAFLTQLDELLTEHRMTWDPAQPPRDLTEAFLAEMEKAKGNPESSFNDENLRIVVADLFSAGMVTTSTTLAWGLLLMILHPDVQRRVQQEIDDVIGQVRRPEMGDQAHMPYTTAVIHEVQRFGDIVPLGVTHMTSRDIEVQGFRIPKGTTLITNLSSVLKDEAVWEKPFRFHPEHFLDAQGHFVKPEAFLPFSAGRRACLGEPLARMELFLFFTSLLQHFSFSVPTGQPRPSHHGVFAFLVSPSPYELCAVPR
Chain of Nonstructural protein 1 (Q194T2 whole entry): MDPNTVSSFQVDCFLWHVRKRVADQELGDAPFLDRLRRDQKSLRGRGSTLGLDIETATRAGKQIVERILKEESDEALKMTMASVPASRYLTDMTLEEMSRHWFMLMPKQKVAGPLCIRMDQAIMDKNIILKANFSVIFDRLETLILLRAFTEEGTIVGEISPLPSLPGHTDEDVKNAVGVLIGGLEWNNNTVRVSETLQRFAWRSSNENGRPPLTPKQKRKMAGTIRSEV
Chain of 26S proteasome non-ATPase regulatory subunit 14 (O00487 whole entry): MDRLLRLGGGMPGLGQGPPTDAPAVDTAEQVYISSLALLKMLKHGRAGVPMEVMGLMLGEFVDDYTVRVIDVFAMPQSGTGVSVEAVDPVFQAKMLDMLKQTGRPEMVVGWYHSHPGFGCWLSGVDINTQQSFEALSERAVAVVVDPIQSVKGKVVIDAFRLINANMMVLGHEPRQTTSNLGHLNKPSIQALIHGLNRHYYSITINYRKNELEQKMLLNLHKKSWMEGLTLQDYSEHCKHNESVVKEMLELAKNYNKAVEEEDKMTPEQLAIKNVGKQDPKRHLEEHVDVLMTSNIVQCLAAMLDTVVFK
Chain of Cytochrome P450 3A4 (P08684 whole entry): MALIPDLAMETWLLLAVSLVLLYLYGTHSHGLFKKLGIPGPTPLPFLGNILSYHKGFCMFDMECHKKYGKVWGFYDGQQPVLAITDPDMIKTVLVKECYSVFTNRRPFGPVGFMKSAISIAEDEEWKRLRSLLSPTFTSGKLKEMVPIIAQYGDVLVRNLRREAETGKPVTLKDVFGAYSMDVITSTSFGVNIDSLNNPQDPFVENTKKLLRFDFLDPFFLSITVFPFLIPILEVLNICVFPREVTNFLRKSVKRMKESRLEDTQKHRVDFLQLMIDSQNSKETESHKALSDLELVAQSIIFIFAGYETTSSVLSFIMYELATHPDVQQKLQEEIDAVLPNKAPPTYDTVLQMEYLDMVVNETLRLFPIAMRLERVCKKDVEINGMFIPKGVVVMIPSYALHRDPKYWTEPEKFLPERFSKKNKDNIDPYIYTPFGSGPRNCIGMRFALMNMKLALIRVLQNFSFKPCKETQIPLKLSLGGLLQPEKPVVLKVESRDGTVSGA
Chain of 72 kDa type IV collagenase (P08253 whole entry): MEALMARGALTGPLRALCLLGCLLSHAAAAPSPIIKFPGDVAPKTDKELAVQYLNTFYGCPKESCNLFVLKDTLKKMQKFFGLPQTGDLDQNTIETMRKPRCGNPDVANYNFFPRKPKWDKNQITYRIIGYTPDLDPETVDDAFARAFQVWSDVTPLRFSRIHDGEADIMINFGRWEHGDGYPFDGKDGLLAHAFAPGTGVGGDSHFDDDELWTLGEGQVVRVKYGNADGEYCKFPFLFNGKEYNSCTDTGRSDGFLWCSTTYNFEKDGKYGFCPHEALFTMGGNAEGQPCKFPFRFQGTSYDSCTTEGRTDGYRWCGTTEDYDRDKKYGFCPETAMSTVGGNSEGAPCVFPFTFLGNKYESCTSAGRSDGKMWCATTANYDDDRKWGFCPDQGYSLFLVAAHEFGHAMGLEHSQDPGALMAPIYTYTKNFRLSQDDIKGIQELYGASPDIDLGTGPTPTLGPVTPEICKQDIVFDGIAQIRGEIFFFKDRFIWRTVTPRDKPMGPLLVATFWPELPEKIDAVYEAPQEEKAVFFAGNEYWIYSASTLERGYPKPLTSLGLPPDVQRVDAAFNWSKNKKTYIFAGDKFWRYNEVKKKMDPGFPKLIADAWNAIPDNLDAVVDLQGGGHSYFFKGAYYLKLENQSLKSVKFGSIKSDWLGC

With `Fc1ccc(NCc2ccccc2F)cc1Cl` the IC50 [1] was 13.3 µM (active), the IC50 [2] was 8.79 µM (active) and the AC50 [3] was 17.8 µM (inconclusive). The AC50 [4] was 20 µM (inconclusive) and the AC50 [5] was 31.6 µM (inconclusive).

For `Cc1cc2c(ccc3nonc32)[nH]1`, the AC50 [6] was 5.79 µM (active).

With `O=[N+]([O-])c1ccc(-c2cn3nc(-c4ccccc4)c(-c4ccccc4)nc3n2)cc1` the EC50 [7] was > 99 µM (inactive), the EC50 [8] was > 99 µM (inactive) and the EC50 [9] was > 53 µM (inactive).

With `COc1cccc(NC(=O)c2sc(NC(=O)c3ccncc3)nc2C)c1` the AC50 [10] was 22.2 µM (active) and the AC50 [6] was 32.4 µM (active).

In the case of `Cc1nc(SCc2nc3cc(Br)ccc3[nH]2)c2oc3ccccc3c2n1`, the IC50 [11] was 50 µM (active), the IC50 [12] was > 100 µM (inactive) and the IC50 [13] was 40 µM (active).

For `CC(C)(C)CC(=O)Nc1ccc(-c2nc3cc(Cl)ccc3o2)cc1`, the IC50 [14] was > 99 µM (inactive), the IC50 [15] was > 99 µM (inactive) and the IC50 [16] was > 99 µM (inactive). For the same molecule, the IC50 [17] was > 99 µM (inactive).

For `Clc1ccc(CNc2ncncc2-c2ccc3c(c2)OCO3)cc1`, the AC50 [10] was 10 µM (active).

For `CC(=O)Nc1ccc2nc(-c3ccccc3)oc2c1`, the IC50 [14] was 49.9 µM (active), the IC50 [15] was 14.2 µM (active) and the IC50 [16] was 46.5 µM (active). The IC50 [17] was 11.6 µM (active).

In the case of `CC(=NNC(S)=Nc1ccccc1Cl)c1ccccn1`, the IC50 [18] was 21.7 µM (active), the AC50 [19] was 0.0577 µM (active) and the AC50 [20] was 3.46 µM (active). For the same molecule, the EC50 [21] was > 59.6 µM (inactive) and the EC50 [22] was > 59.6 µM (inactive).

With `Clc1ccc(CNc2nccc(-c3ccc4[nH]ncc4c3)n2)cc1Cl` the AC50 [10] was 0.00677 µM (active).

With `N=C1/C(=C/c2ccc(O)cc2)C(=O)N=C2SN=C(SCc3ccccc3)N12` the IC50 [1] was 20.4 µM (inactive) and the IC50 [2] was 13.3 µM (active).

For `O=C(O)COc1ccc2occ(C(=O)c3ccccc3)c2c1`, the IC50 [23] was 12.3 µM (active) and the AC50 [6] was 6.49 µM (active).

From ChEMBL document CHEMBL1201862, “PubChem BioAssay data set” (2004)
